Laboratory results published in US9260326B2, “Selective oxoanion separation using a tripodal ligand” (UT-BATTELLE, LLC, priority 2012, dated 2016).

What was measured:
[1] = Sulfate separation and L1 recycling, Mg-based system, Simulant 1
Procedure: For comparison purposes, solid L1.2H2O (478 mg, 0.88 mmol) and Mg(NO3)2 (113 mg, 0.44 mmol) were added to 10 mL of Simulant 1 solution (Table 1) containing 0.44 mmol SO4^2−. The mixture was stirred magnetically at room temperature for 48 h, and the resulting solid was filtered, washed with water, and dried. The identity of the crystalline product, MgSO4(L1)2(H2O)6 (Compound 3) was confirmed by PXRD and FTIR spectroscopy.
To recover and recycle L1, crystals of Compound 3 (457 mg, 0.368 mmol) were dissolved in 1 M HNO3 (1 mL) to form a clear solution to which was added 1 M NaOH (2 mL). The mixture was stirred at room temperature overnight, and the resulting solid was filtered, washed with water, and dried. Yield: 388 mg. […] The solid mixture of L1.2H2O and Mg(OH)2 could be recycled by adding it to a fresh solution of the simulant, thereby initiating another separation cycle.
The recovered solid L1 and magnesium hydroxide were then added to a fresh simulant solution to start another cycle. Such cycling was repeated twice more. […] This established that the ligand is robust enough to survive at least three recovery cycles. Although this magnesium-based system is not applicable to the full alkaline conditions encountered in the nuclear waste, the ease of operation coupled with high efficiency and good ligand recyclability opens the door to other industrial sulfate separations from simpler, less basic aqueous solutions.

[2] = Relative solubility in water; type: physicochemical; conditions: pure water
Text: The final crystalline solid was isolated in 90% yield, and its PXRD and FTIR spectra corresponded to those of pure Compound 1 (FIG. 4). The relatively long reaction time required to convert L1 to Compound 1 appeared to proceed via a three-phase process involving slow dissolution of L1 and its recrystallization into Compound 1.

[3] = Mg-based system (Rajbanshi et al. 2012); cited from earlier work
[4] = Pairwise competitive crystallization with L1, K-based system
Text: (§1) The experiments described below were generally conducted as described above and as described in Rajbanshi et al. 2012.
For the K-based system, pairwise competitive crystallizations with L1 gave SO4^2/SeO4^2− selectivity and SO4^2−/CrO4^2− selectivity ratios of 13.3 and 1.1, respectively. The potassium capsule was the smallest of the three systems (d(N . . . N)=9.21 Å).

[5] = Pairwise competitive crystallization with L1, Na-based system
Procedure: as §1
To assess the size recognition of the crystalline capsule in the Na-based system, similar pairwise competitive crystallization experiments were performed with L1 (two equivalents) and Na2SO4/Na2SeO4 mixtures (one equivalent each) in H2O/MeOH. […] The SO4^2−/SeO4^2− molar ratio found in the crystalline solid resulting from the competitive crystallization was 31.3, indicating strong size recognition for SO4^2−. […] The increased SO4^2−/SeO4^2− selectivity in the Na-based system may be attributed to the smaller size of the Na capsule (d(N . . . N)=9.51 Å) compared to the Mg capsule (d(N . . . N)=9.65 Å), which favored the smaller sulphate anion.
In comparison with the good SO4^2−/SeO4^2− selectivity observed in the Na-based crystallizations, the competitive crystallization experiment involving a Na2SO4/Na2CrO4 mixture under similar conditions yielded crystals with a SO4^2−/CrO4^2− ratio of only 2.0. […] As a result, binding of chromate is inherently favored due to its stronger hydrogen bond acceptor ability compared to sulphate, a factor that apparently offsets much of the size discrimination effect.

For `O=C(NCCN(CCNC(=O)Nc1cccnc1)CCNC(=O)Nc1cccnc1)Nc1cccnc1` [Compound L1], the recovery of sulfate ([1]; Simulant 1, first listed cycle) was 99.6%, the recovery of sulfate ([1]; Simulant 1, second listed cycle) was 99.4% and the recovery of sulfate ([1]; Simulant 1, third listed cycle) was 97.9%. For the same compound, the “solubility relative to Compound 1” value [2] was “less soluble than Compound 1”, the “SO4^2−/SeO4^2− ratio” value [3] was 3 and the “SO4^2−/CrO4^2− selectivity ratio” value [4] was 1.1. The “SO4^2−/SeO4^2− selectivity ratio” value [4] was 13.3, the “molar ratio of sulphate over competing carbonate in crystals” value ([5]; L1 2 equiv, Na2SO4 and Na2CO3 1 equiv each, H2O/MeOH, elemental analysis) was 11.5 and the “molar ratio of sulphate over competing sulphite in crystals” value ([5]; L1 2 equiv, Na2SO4 and Na2SO3 1 equiv each, H2O/MeOH, elemental analysis) was 5.9. For the same compound, the “SO4^2−/CrO4^2− ratio in crystals” value ([5]; Na2SO4/Na2CrO4 mixture) was 2.0.
